Laboratory results: ChEMBL document CHEMBL3400044, “Minimization of drug-drug interaction risk and candidate selection in a natural product-based class of gamma-secretase modulators” (Bioorg Med Chem Lett, 2015)

test: physchem

| SMILES | pKa |
| --- | --- |
| CCO[C@@H]([C@H]1C[C@@H](C)[C@H]2[C@H](O1)[C@H](O)[C@@]1(C)[C@@H]3CC[C@H]4C(C)(C)[C@@H](O[C@H]5CN(C6(C)COC6)CCO5)CC[C@@]45C[C@@]35CC[C@]21C)C(C)(C)O | 5.2 |
| CCO[C@@H]([C@H]1C[C@@H](C)[C@H]2[C@H](O1)[C@H](O)[C@@]1(C)[C@@H]3CC[C@H]4C(C)(C)[C@@H](O[C@H]5CN(C)CCO5)CC[C@@]45C[C@@]35CC[C@]21C)C(C)(C)O | 7.2 |
| CCO[C@@H]([C@H]1C[C@@H](C)[C@H]2[C@H](O1)[C@H](O)[C@@]1(C)[C@@H]3CC[C@H]4C(C)(C)[C@@H](O[C@H]5CN(C6COC6)CCO5)CC[C@@]45C[C@@]35CC[C@]21C)C(C)(C)O | 5.1 |
| CCO[C@@H]([C@H]1C[C@@H](C)[C@H]2[C@H](O1)[C@H](O)[C@@]1(C)[C@@H]3CC[C@H]4C(C)(C)[C@@H](O[C@H]5CNCCO5)CC[C@@]45C[C@@]35CC[C@]21C)C(C)(C)O | 7.8 |

Now from value to molecule:

| pKa | SMILES |
| --- | --- |
| 5.2 | CCO[C@@H]([C@H]1C[C@@H](C)[C@H]2[C@H](O1)[C@H](O)[C@@]1(C)[C@@H]3CC[C@H]4C(C)(C)[C@@H](O[C@H]5CN(CC(=O)N6CCC6)CCO5)CC[C@@]45C[C@@]35CC[C@]21C)C(C)(C)O |
| 10.7 | CCO[C@@H]([C@H]1C[C@@H](C)[C@H]2[C@H](O1)[C@H](O)[C@@]1(C)[C@@H]3CC[C@H]4C(C)(C)[C@@H](O[C@H]5CN(C6CNC6)CCO5)CC[C@@]45C[C@@]35CC[C@]21C)C(C)(C)O |
| 7.3 | CCO[C@@H]([C@H]1C[C@@H](C)[C@H]2[C@H](O1)[C@H](O)[C@@]1(C)[C@@H]3CC[C@H]4C(C)(C)[C@@H](O[C@H]5CN(CC)CCO5)CC[C@@]45C[C@@]35CC[C@]21C)C(C)(C)O |
| 9.4 | CCO[C@@H]([C@H]1C[C@@H](C)[C@H]2[C@H](O1)[C@H](O)[C@@]1(C)[C@@H]3CC[C@H]4C(C)(C)[C@@H](O[C@H]5CN(CCN6CCC6)CCO5)CC[C@@]45C[C@@]35CC[C@]21C)C(C)(C)O |
